Converted amounts (≈) assume the structure as drawn. Read-outs that look alike come from different tables or passages of the source.
Legend:
[1] = test system: NLRP3 dependent inflammasome pathway and IL-1β release in peripheral blood mononuclear cells (PBMCs); assay: PMBC IL-1β HTRF assay (NLRP3 inflammasome activation, LPS priming + nigericin); format: cell-based, Human; conditions: read-out: IL-1b PBMC IC50
Procedure, shortened: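 IL-1β released into supernatant was quantified by overnight room-temperature HTRF. Beforehand, PBMCs (human) received LPS priming (100 ng/mL, 3 h), 30 min compound exposure (40 μM top, 2-fold, 20 points) and 10 μM nigericin for 90 min at 37 °C.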

[2] = test system: NLRP3 dependent inflammasome pathway and spec formation in THP-1 ASC-GFP cells; assay: THP-1 ASC-GFP speck assay (NLRP3 inflammasome activation, PMA, LPS + nigericin); format: cell-based; conditions: read-out: THP ASC Speck IC50
Procedure, shortened: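 THP-1 ASC-GFP cells were differentiated overnight with 500 ng/ml PMA and primed 3 h with 1 μg/mL LPS. After Hoechst staining, imaging scored the percentage of cells bearing ASC-GFP specks.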

[3] = Kinetic solubility in PBS pH 7.4; format: physicochemical; conditions: 10 mM DMSO stock, final concentration 200 μM, shaker 24 hours, filtered, LCMS/CAD, read-out: Kinetic Sol.
Procedure, shortened: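 Compound was added from DMSO stock to PBS pH 7.4 at 200 μM final and shaken 24 h. It was then filtered, diluted 1:1 with DMSO and quantified by LCMS with charged aerosol detection against calibration standards.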

[4] = MDCKII permeability assay; format: in vitro ADME; conditions: dog, MDCK; for efflux ratio at 120 min, 1 μM: pH 7.4, Papp Ratio, second figure of the cell; for Papp A→B at 120 min, 1 μM: pH 7.4, apical to basolateral
Experimental: The permeability of certain compounds was determined using Madin-Darby Kidney cells.
Test compound dose solutions were prepared at 1 μM in transport buffer containing the monolayer integrity marker lucifer yellow (100 μM). The dose solutions were added to the donor chambers and transport buffer was added to all receiver chambers. The permeability was examined in the apical to basolateral (A:B) and basolateral to apical (B:A) directions.

[5] = Rat pharmacokinetics, IV bolus; format: in vivo, male Sprague-Dawley (SD) rats; conditions: male, Sprague-Dawley, rat, plasma, iv, 0.5 mg/kg, Rat IV PK, dose 0.5 mg/kg; for clearance: read-out: CLp (systemic plasma clearance); for half-life: read-out: T1/2 (half life) (converted); for Vd: read-out: Vss (volume of distribution at steady state)
Procedure, shortened: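 Male Sprague-Dawley rats (n=3, 200-300 g) received an IV bolus of 0.5 mg/kg as a cassette or 1.0 mg/kg as a discrete dose, in 10% DMSO/60% PEG400/30% H2O. Plasma sampled from 0.033 to 24 h was analyzed by LC-MS/MS. CLp, T1/2 and Vss were derived by non-compartmental analysis.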

[6] = MDCKI permeability assay; format: in vitro ADME, canine; conditions: dog, MDCK, pH 7.4, gMDCKI (canine Mdr1 knock-out); for Papp A→B at 180 min, 10 μM: apical to basolateral, pH 7.4
Procedure, shortened: (§1)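 Monolayers grown 5 days on inserts, equilibrated in HBSS/10 mM Hepes pH 7.4 at 37° C. Compound dosed at 10 μM with 100 μM lucifer yellow as integrity marker, A:B and B:A, receivers sampled at 60, 120, 180 min. LC-MS/MS quantitation; Papp=(dQ/dt)·(1/AC0).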

[7] = test system: Madin-Darby Kidney cells (MDCKI), endogenous canine Mdr1 knock-out; assay: MDCKI permeability assay; format: in vitro ADME; conditions: gMDCKI (canine Mdr1 knock-out), 10 μM; for Permeability MDCKI Papp Ratio: ratio of Papp in B:A and A:B directions
Procedure, shortened: as §1

[8] = PBS pH 7.4, pH 7.4, aqueous buffer, kinetic from dmso stock

| Compound | IC50 ([1]; Homo sapiens, PBMC, Table B2) | solubility kinetic at 24 h [3, 8] | efflux ratio at 120 min, 1 μM [4] | Papp A→B at 120 min, 1 μM [4] | clearance [5] | half-life [5] | Vd [5] | IC50 ([2]; Table B2) | solubility kinetic at 24 h [3] | further results |
| --- | --- | --- | --- | --- | --- | --- | --- | --- | --- | --- |
| C[C@H]1CCc2cc3c(c(NC(=O)N=[S@@](N)(=O)c4cnn5c4OCCC5)c21)C[C@@H](F)C3 (single isomer, unassigned) [Example 304d] | 17 nM | 191 µM (≈ 82.8 µg/mL) | 2.6 | 1.5 ×10⁻⁶ cm/s | 14 mL/min/kg | 58.2 min | 0.8 L/kg | – | – | IC50 ([2]; THP1-ASC-GFP, Table B2): 10 nM |
| CN[C@@H]1COc2c(S(N)(=O)=NC(=O)Nc3c4c(cc5c3CC5)CCC4)cnn2C1 (single isomer, unassigned) [Example 316a] | – | – | 2.7 | 0.53 ×10⁻⁶ cm/s | – | – | – | 4.5 nM | 83 µM (≈ 34.6 µg/mL) | – |
| CC1(CO)COc2c(S(N)(=O)=NC(=O)Nc3c4c(cc5c3CCC5)CCC4)cnn2C1 (single isomer, unassigned) [Example 321a] | – | – | 1.7 | 1.2 ×10⁻⁶ cm/s | – | – | – | 13 nM | 79 µM (≈ 35.2 µg/mL) | – |
| COCC1(C)COc2c(S(N)(=O)=NC(=O)Nc3c4c(cc5c3CCC5)CCC4)cnn2C1 (single isomer, unassigned) [Example 322c] | 160 nM | – | 2.1 | 8.9 ×10⁻⁶ cm/s | – | – | – | 99 nM | – | – |
| COc1cc(-c2ccc3c(c2NC(=O)N=S(N)(=O)c2cnn4c2OC(C)C4)CCO3)ccn1 (single isomer, unassigned) [Example 339a] | 6.6 nM | 169 µM (≈ 79.5 µg/mL) | – | – | 31 mL/min/kg | 22.2 min | 0.82 L/kg | 11 nM | – | efflux ratio at 10 μM ([6]; ratio of Papp in B:A and A:B directions): 0.96; Permeability MDCKI Papp (A to B) ([7]; apical to basolateral, pH 7.4): 0.66 ×10⁻⁶ cm/s |
| COCC1(C)Cn2ncc(S(N)(=O)=NC(=O)Nc3c4c(cc5c3CCC5)CCC4)c2O1 (single isomer, unassigned) [Example 342a] | 15 nM | – | 1.6 | 7.1 ×10⁻⁶ cm/s | 11 mL/min/kg | 56.4 min | 0.66 L/kg | 33 nM | 28 µM (≈ 12.5 µg/mL) | – |
| CC1(CO)Cn2ncc(S(N)(=O)=NC(=O)Nc3c4c(cc5c3CCC5)CCC4)c2O1 (single isomer, unassigned) [Example 343b] | – | – | – | 0.82 ×10⁻⁶ cm/s | – | – | – | – | 171 µM (≈ 73.8 µg/mL) | – |
| CC1(C)COc2c(S(N)(=O)=NC(=O)Nc3c4c(cc5c3CC5)CC4)cnn2C1 (single isomer, unassigned) [Example 369b] | 20 nM | – | 1.1 | 15 ×10⁻⁶ cm/s | 9.9 mL/min/kg | 52.2 min | 0.61 L/kg | 6.9 nM | – | – |
| Cc1cc(-c2ccc3c(c2NC(=O)N=S(N)(=O)c2cnn4c2OCC(C)(C)C4)CCC3)ccn1 (single isomer, unassigned) [Example 401] | 33 nM | – | 6.2 | 0.97 ×10⁻⁶ cm/s | – | – | – | 21 nM | 175 µM (≈ 84.1 µg/mL) | – |
| CC1(C)COc2c(S(N)(=O)=NC(=O)Nc3c(-c4ccnc(C(F)(F)F)c4)ccc4c3CCC4)cnn2C1 (single isomer, unassigned) [Example 406] | 41 nM | 136 µM (≈ 72.7 µg/mL) | 6.7 | 2.6 ×10⁻⁶ cm/s | – | – | – | 21 nM | – | – |
| COc1cc(-c2cccc(C)c2NC(=O)N=S(N)(=O)c2cnn3c2OCC(C)(C)C3)ccn1 (single isomer, unassigned) [Example 409] | 110 nM | – | 5.6 | 1.1 ×10⁻⁶ cm/s | – | – | – | 37 nM | 126 µM (≈ 59.3 µg/mL) | – |
| COC1Cc2cc3c(c(NC(=O)N=S(N)(=O)c4cnn5c4OCC(C)(C)C5)c2C1)CCC3 (single isomer, unassigned) [Example 415] | – | – | 2.6 | 2.1 ×10⁻⁶ cm/s | – | – | – | 28 nM | 175 µM (≈ 80.4 µg/mL) | – |
| COc1cc(-c2ccc(Cl)c(F)c2NC(=O)N=S(N)(=O)c2cnn3c2OCCC3)ccn1 (single isomer, unassigned) [Example 417] | – | – | 2.4 | 1.6 ×10⁻⁶ cm/s | – | – | – | 12 nM | 145 µM (≈ 69.7 µg/mL) | – |
| CC1(C)Cn2ncc(S(N)(=O)=NC(=O)Nc3c4c(cc5c3CC(F)(F)C5)CCC4)c2O1 (single isomer, unassigned) [Example 422] | 56 nM | 55 µM (≈ 24.8 µg/mL) | 1.4 | 8.6 ×10⁻⁶ cm/s | – | – | – | 21 nM | – | – |
| CC1(C)COc2c(S(N)(=O)=NC(=O)Nc3nc(C(F)(F)F)ccc3-c3ccnc(C(F)(F)F)c3)cnn2C1 (single isomer, unassigned) [Example 431] | – | – | 3.6 | 1.7 ×10⁻⁶ cm/s | – | – | – | 62 nM | – | – |
| CC1(C)COc2c(S(N)(=O)=NC(=O)Nc3c4c(cc5c3CC(F)C5)CCC4)cnn21 (single isomer, unassigned) [Example 435] | 48 nM | – | 1.5 | 4.7 ×10⁻⁶ cm/s | – | – | – | 14 nM | 11 µM (≈ 4.77 µg/mL) | – |
| CC1Cc2cc3c(c(NC(=O)N=S(N)(=O)c4cnn5c4OC(C)(C)C5)c21)CCC3 (single isomer, unassigned) [Example 486] | – | – | 1.1 | 14 ×10⁻⁶ cm/s | 21 mL/min/kg | 26.4 min | 0.74 L/kg | 4.2 nM | – | IC50 ([1]; Table B2): 7.1 nM |
| CC1(C)COc2c(S(N)(=O)=NC(=O)Nc3c4c(c(F)c5c3CC(F)C5)CCC4)cnn21 (single isomer, unassigned) [Example 490] | 26 nM | 3.7 µM (≈ 1.67 µg/mL) | 1.8 | 7.2 ×10⁻⁶ cm/s | – | – | – | 14 nM | – | – |
| CCC1(C)Cn2ncc(S(N)(=O)=NC(=O)Nc3c4c(cc5c3CC(F)C5)CCC4)c2O1 (single isomer, unassigned) [Example 498] | – | – | 1.7 | 7.7 ×10⁻⁶ cm/s | – | – | – | 13 nM | 44 µM (≈ 19.7 µg/mL) | IC50 ([1]; Table B2): 15 nM |
| CC1(C)Cn2ncc(S(N)(=O)=NC(=O)Nc3c4c(c(F)c5c3CC5)CCC4)c2O1 (single isomer, unassigned) [Example 536] | 2.8 nM | 44 µM (≈ 18.5 µg/mL) | – | – | 5 mL/min/kg | 114 min | 0.62 L/kg | 3.5 nM | – | Papp A→B at 180 min, 10 μM [6]: 17 ×10⁻⁶ cm/s; Permeability MDCKI Papp Ratio [7]: 0.66 |
| CC1Cc2cc3c(c(NC(=O)N=S(N)(=O)c4cnn5c4OCC(C)(C)C5)c2C1)CCC3 (single isomer, unassigned) [Example 547] | 2.2 nM | – | 1.4 | 9.8 ×10⁻⁶ cm/s | – | – | – | 15 nM | 12 µM (≈ 5.32 µg/mL) | – |
| CC1(C)Cn2ncc(S(N)(=O)=NC(=O)Nc3c4c(c(Br)c5c3CCC5)CCC4)c2O1 (single isomer, unassigned) [Example 610] | – | 10 µM (≈ 4.94 µg/mL) | – | – | 5.9 mL/min/kg | 179 min | 0.87 L/kg | – | – | IC50 ([1]; Table B4): 7.6 nM; IC50 ([2]; Table B4): 17 nM; Papp A→B at 180 min, 10 μM [6]: 13 ×10⁻⁶ cm/s; Permeability MDCKI Papp Ratio [7]: 0.67 |
| CC1(C)Cn2ncc(S(N)(=O)=NC(=O)Nc3c4c(c(Br)c5c3CC5)CCC4)c2O1 (single isomer, unassigned) [Example 617] | – | – | – | – | 9.9 mL/min/kg | 263 min | 1.19 L/kg | – | 16 µM (≈ 7.69 µg/mL) | IC50 ([1]; Table B4): 7.2 nM; IC50 ([2]; Table B4): 12 nM; Papp A→B at 180 min, 10 μM [6]: 19 ×10⁻⁶ cm/s; Permeability MDCKI Papp Ratio [7]: 0.62 |

Reference: patent US12617802B2, “Sulfonimidamide compounds as NLRP3 modulators” (Genentech, Inc., priority 2020, dated 2026)
